Data on 35 compounds can be found in patent US20240308973A1, “PHOSPHODIESTERASE 3 (PDE3) INHIBITORS” (Zoetis Services LLC, priority 2023, published 2024).

Sequence of dog PDE3A recombinant enzyme (A0A8I3NYE0 1-1135): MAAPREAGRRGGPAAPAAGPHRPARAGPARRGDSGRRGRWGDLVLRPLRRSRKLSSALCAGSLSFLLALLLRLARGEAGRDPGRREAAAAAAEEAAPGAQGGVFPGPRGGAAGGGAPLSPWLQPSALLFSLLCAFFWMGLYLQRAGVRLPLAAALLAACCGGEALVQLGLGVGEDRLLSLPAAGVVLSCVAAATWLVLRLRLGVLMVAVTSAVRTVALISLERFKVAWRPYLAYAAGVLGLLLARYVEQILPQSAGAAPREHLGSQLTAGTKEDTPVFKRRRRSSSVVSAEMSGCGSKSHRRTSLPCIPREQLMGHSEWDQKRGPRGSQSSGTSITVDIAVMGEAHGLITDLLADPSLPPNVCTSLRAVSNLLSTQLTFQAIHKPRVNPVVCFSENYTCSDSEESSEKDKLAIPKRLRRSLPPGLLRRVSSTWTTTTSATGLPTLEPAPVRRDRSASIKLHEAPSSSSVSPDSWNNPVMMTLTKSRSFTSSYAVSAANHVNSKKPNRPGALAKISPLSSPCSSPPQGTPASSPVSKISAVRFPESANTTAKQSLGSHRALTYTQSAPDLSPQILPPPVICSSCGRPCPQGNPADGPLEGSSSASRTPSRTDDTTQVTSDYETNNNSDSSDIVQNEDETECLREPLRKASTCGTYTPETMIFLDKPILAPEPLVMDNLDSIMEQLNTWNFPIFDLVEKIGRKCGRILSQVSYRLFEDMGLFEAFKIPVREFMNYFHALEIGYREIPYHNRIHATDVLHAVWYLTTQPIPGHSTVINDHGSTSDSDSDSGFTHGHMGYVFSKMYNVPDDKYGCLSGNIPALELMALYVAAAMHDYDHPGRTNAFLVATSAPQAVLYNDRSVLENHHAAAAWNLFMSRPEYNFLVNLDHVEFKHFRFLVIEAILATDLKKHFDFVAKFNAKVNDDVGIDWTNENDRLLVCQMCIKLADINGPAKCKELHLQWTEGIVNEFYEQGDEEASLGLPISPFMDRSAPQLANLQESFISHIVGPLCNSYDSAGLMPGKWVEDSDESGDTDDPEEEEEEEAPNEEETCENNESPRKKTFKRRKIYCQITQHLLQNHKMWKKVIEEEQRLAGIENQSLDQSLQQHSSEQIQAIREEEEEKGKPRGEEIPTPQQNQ

The target of the first data set is dog PDE3A recombinant enzyme (Canis lupus familiaris, UniProt A0A8I3NYE0). Description: cPDE3A assay (fluorescent polarization). The class given is biochemical. The conditions noted are these: canine PDE3A, read-out: cPDE3 Inhibition (IC50). The procedure:
cPDE3A Assay (Fluorescent Polarization)
The canine PDE3A assay kit was purchased from BPS Bioscience (San Diego, CA) which included dog PDE3A recombinant enzyme, FAM-cyclic-3′,5′-AMP (20 μM), PDE3 assay buffer, binding agent, binding agent diluent and microtiter 96-well plates. Compounds were initially dissolved in DMSO. The stock concentration was subsequently diluted in cPDE assay buffer (10× stock) and serially diluted to give a concentration response curve starting at 10 μM (≥7 total concentrations). Following the serial dilution, compound solution (0.1% final DMSO) was transferred to an assay plate (96-well) where the remaining canine PDE3A assay reagents were dispensed according to the BPS Bioscience® protocol (catalog #79735) procedure using a final concentration of 5 pg/μL of enzyme. Each compound was evaluated for the inhibition of the canine PDE3A enzyme activity using the measurement of fluorescent polarization changes. The 50% inhibition concentration (IC50) nM was calculated and reported.
What is called IC50 is the point on the concentration scale where inhibition reaches its midpoint. As to `CC1CC(=O)NN=C1c1cc(Cl)c2c(c1)C(C)(C)C(=O)N2` (racemic) [Example #24, 7-chloro-3,3-dimethyl-5-(4-methyl-6-oxo-1,4,5,6-tetrahydropyridazin-3-yl)indolin-2-one], the IC50 came out at 5.4 nM.

Regarding `CC1CC(=O)NN=C1c1cc2c(c(-c3cccc(F)c3)c1)NC(=O)CC2` (stereo not shown) [Example #12, 8-(3-fluorophenyl)-6-(4-methyl-6-oxo-1,4,5,6-tetrahydropyridazin-3-yl)-3,4-dihydroquinolin-2 (1H)-one], the IC50 amounted to 90.9 nM.

Turning to `CC1CC(=O)NN=C1c1cc(Br)c2c(c1)C(C)(C)C(=O)N2` (stereo not shown) [Example #23, 7-bromo-3,3-dimethyl-5-(4-methyl-6-oxo-1,4,5,6-tetrahydropyridazin-3-yl)indolin-2-one], the IC50 was 9.1 nM.

`CC1(C)C(=O)Nc2c(Cl)cc(-c3ccc(=O)[nH]n3)cc21` [Example #25, 7-chloro-3,3-dimethyl-5-(6-oxo-1,6-dihydropyridazin-3-yl)indolin-2-one]: the concentration for half-maximal inhibition (IC50) was determined as 15.7 nM.

`Cc1cc(C2=NNC(=O)SC2C)cc2sc(=O)[nH]c12` (stereo not shown) [Example #55, 4-methyl-6-(6-methyl-2-oxo-3,6-dihydro-2H-1,3,4-thiadiazin-5-yl)benzo[d]thiazol-2 (3H)-one]: the IC50 came out at 3.8 nM.

For the compound `CC1SC(=O)NN=C1c1cc(Cl)c2c(c1)CNC2=O` (stereo not shown) [Example #79, 5-(7-chloro-1-oxoisoindolin-5-yl)-6-methyl-3,6-dihydro-2H-1,3,4-thiadiazin-2-one], the IC50 turned out to be 20.3 nM.

As for `CC1SC(=O)NN=C1c1cc(Cl)c2c(c1)C(C)(C)NC2=O` (stereo not shown) [Example #80, 5-(7-chloro-3,3-dimethyl-1-oxoisoindolin-5-yl)-6-methyl-3,6-dihydro-2H-1,3,4-thiadiazin-2-one], the IC50 was 20.6 nM.

On to `O=C1Cc2cc(-c3cc(Cl)c4[nH]c(=O)oc4c3)cnc2N1` [Example #84, 4-chloro-6-(2-oxo-2,3-dihydro-1H-pyrrolo[2,3-b]pyridin-5-yl)benzo[d]oxazol-2 (3H)-one], for which the IC50 came out at 112 nM.

As to `CC1(C)C(=O)Nc2c(Cl)cc(-c3cnc4c(c3)CCC(=O)N4)cc21` [Example #87, 6-(7-chloro-3,3-dimethyl-2-oxoindolin-5-yl)-3,4-dihydro-1,8-naphthyridin-2 (1H)-one], the 50% inhibitory concentration (IC50) was 3.4 nM.

As to `CC1CC(=O)NN=C1c1ccc2nc(Nc3ccc4ncsc4c3)n(C)c2c1` (stereo not shown) [compound 10, 6-(2-(benzo[d]thiazol-6-ylamino)-1-methyl-1H-benzo[d]imidazol-6-yl)-5-methyl-4,5-dihydropyridazin-3 (2H)-one], the half-inhibitory concentration (IC50) was 7.3 nM.

Consider `CC1CC(=O)NN=C1c1cc(Br)c2c(c1)C(C)(C)CC(=O)N2` (stereo not shown) [compound 11, 8-bromo-4,4-dimethyl-6-(4-methyl-6-oxo-1,4,5,6-tetrahydropyridazin-3-yl)-3,4-dihydroquinolin-2 (1H)-one], for which the IC50 was determined as 51.3 nM.

On to `COc1ccc(-c2cc(C3=NNC(=O)CC3C)cc3c2NC(=O)CC3)cn1` (stereo not shown) [compound 14, 8-(6-methoxypyridin-3-yl)-6-(4-methyl-6-oxo-1,4,5,6-tetrahydropyridazin-3-yl)-3,4-dihydroquinolin-2 (1H)-one], for which the concentration for half-maximal inhibition (IC50) was 50.2 nM.

Regarding `Cc1cc(C2=NNC(=O)CC2)cc2sc(=O)[nH]c12` [compound 15, 4-methyl-6-(6-oxo-1,4,5,6-tetrahydropyridazin-3-yl)benzo[d]thiazol-2 (3H)-one], the 50% inhibitory concentration (IC50) stood at 17.6 nM.

As to `CC1CC(=O)NN=C1c1ccc2nc(Nc3ccc(S(C)(=O)=O)cc3)n(C3CC3)c2c1` (stereo not shown) [compound 16, 6-(1-cyclopropyl-2-((4-(methylsulfonyl)phenyl)amino)-1H-benzo[d]imidazol-6-yl)-5-methyl-4,5-dihydropyridazin-3 (2H)-one], the IC50 worked out at 5 nM.

In the case of `CC1CC(=O)NN=C1c1cc2c(c(-c3nccs3)c1)NC(=O)CCC2` (stereo not shown) [compound 20, 7-(4-methyl-6-oxo-1,4,5,6-tetrahydropyridazin-3-yl)-9-(thiazol-2-yl)-1,3,4,5-tetrahydro-2H-benzo[b]azepin-2-one], the IC50 turned out to be 32.4 nM.

As to `CC1CC(=O)NN=C1c1ccc2nc(Oc3ccc4ncsc4c3)[nH]c2c1` (stereo not shown) [compound 22, 6-(2-(benzo[d]thiazol-6-yloxy)-1H-benzo[d]imidazol-6-yl)-5-methyl-4,5-dihydropyridazin-3 (2H)-one], the IC50 came to 33.1 nM.

Take `CC1CC(=O)NN=C1c1cc(Cl)c2[nH]c(=O)sc2c1` (stereo not shown) [compound 29, 4-chloro-6-(4-methyl-6-oxo-1,4,5,6-tetrahydropyridazin-3-yl)benzo[d]thiazol-2 (3H)-one]: the IC50 was found to be 3.2 nM.

On to `CC1CC(=O)NN=C1c1cc(Br)c2nc(O)ccc2c1` (stereo not shown) [compound 45, 6-(8-bromo-2-hydroxyquinolin-6-yl)-5-methyl-4,5-dihydropyridazin-3 (2H)-one], for which the IC50 was determined as 3.2 nM.

In the case of `CC1CC(=O)NN=C1c1cc(C2CC2)c2nc(O)ccc2c1` (stereo not shown) [compound 48, 6-(8-cyclopropyl-2-hydroxyquinolin-6-yl)-5-methyl-4,5-dihydropyridazin-3 (2H)-one], the IC50 was 18 nM.

With `COC1CN(c2nc3ccc(C4=NNC(=O)CC4C)cc3s2)C1` (stereo not shown) [compound 49, 6-(2-(3-methoxyazetidin-1-yl)benzo[d]thiazol-6-yl)-5-methyl-4,5-dihydropyridazin-3 (2H)-one], the IC50 came out at 48.6 nM.

For `O=c1ccc(-c2cc(Cl)c3[nH]c(=O)sc3c2)n[nH]1` [compound 52, 4-chloro-6-(6-oxo-1,6-dihydropyridazin-3-yl)benzo[d]thiazol-2 (3H)-one], the IC50 was found to be 24.7 nM.

Take `CC1CC(=O)NN=C1c1cc(C#N)c2c(c1)CC(=O)N2` (stereo not shown) [compound 53, 5-(4-methyl-6-oxo-1,4,5,6-tetrahydropyridazin-3-yl)-2-oxoindoline-7-carbonitrile]: the IC50 is 32.7 nM.

For the compound `C[C@@H]1CC(=O)NN=C1c1cc(F)c2c(c1)CC(=O)N2` [compound 54, (R)-7-fluoro-5-(4-methyl-6-oxo-1,4,5,6-tetrahydropyridazin-3-yl)indolin-2-one], the half-maximal inhibitory concentration (IC50) was found to be 7.4 nM.

In the case of `Cc1cc(C2=NNC(=O)S[C@@H]2C)cc2ccc(O)nc12` [compound 60, (R)-5-(2-hydroxy-8-methylquinolin-6-yl)-6-methyl-3,6-dihydro-2H-1,3,4-thiadiazin-2-one], the concentration for half-maximal inhibition (IC50) was found to be 4.7 nM.

On to `CC1SC(=O)NN=C1c1cc(Cl)c2c(c1)CCCC(=O)N2` (stereo not shown) [compound 64, 5-(9-chloro-2-oxo-2,3,4,5-tetrahydro-1H-benzo[b]azepin-7-yl)-6-methyl-3,6-dihydro-2H-1,3,4-thiadiazin-2-one], for which the IC50 is 3.2 nM.

Take `CC1SC(=O)NN=C1c1cc(Br)c2c(c1)CC(=O)N2` (stereo not shown) [compound 69, 5-(7-bromo-2-oxoindolin-5-yl)-6-methyl-3,6-dihydro-2H-1,3,4-thiadiazin-2-one]: the half-maximal inhibitory concentration (IC50) was determined as 10.9 nM.

With `CC1SC(=O)NN=C1c1cc2c(c(-c3ccccc3)c1)NC(=O)C2` (stereo not shown) [compound 70, 6-methyl-5-(2-oxo-7-phenylindolin-5-yl)-3,6-dihydro-2H-1,3,4-thiadiazin-2-one], the IC50 is 80.7 nM.

Take `CC1SC(=O)NN=C1c1cc(Cl)c2nc(O)ccc2c1` (stereo not shown) [compound 81, 5-(8-chloro-2-hydroxyquinolin-6-yl)-6-methyl-3,6-dihydro-2H-1,3,4-thiadiazin-2-one]: the IC50 is 3.2 nM.

`CC1SC(=O)NN=C1c1cc(Cl)c2c(c1)CS(=O)(=O)N2` (stereo not shown) [compound 82, 5-(7-chloro-2,2-dioxido-1,3-dihydrobenzo[c]isothiazol-5-yl)-6-methyl-3,6-dihydro-2H-1,3,4-thiadiazin-2-one]: the IC50 is 26.4 nM.

As for `Cc1cc(C2=NNC(=O)SC2C)cc2c1NC(=O)CC2` (stereo not shown) [compound 83, 6-methyl-5-(8-methyl-2-oxo-1,2,3,4-tetrahydroquinolin-6-yl)-3,6-dihydro-2H-1,3,4-thiadiazin-2-one], the IC50 is 3.2 nM.

Regarding `O=c1[nH]nc(-c2cc(Cl)c3[nH]c(=O)sc3c2)s1` [compound 88, 4-chloro-6-(5-oxo-4,5-dihydro-1,3,4-thiadiazol-2-yl)benzo[d]thiazol-2 (3H)-one], the concentration for half-maximal inhibition (IC50) came out at 29.2 nM.

Take `CC1(C)C(=O)Nc2c(Cl)cc(-c3n[nH]c(=O)s3)cc21` [compound 89, 5-(7-chloro-3,3-dimethyl-2-oxoindolin-5-yl)-1,3,4-thiadiazol-2 (3H)-one]: the IC50 is 25.3 nM.

System in the next data set: not listed separately
As to the kind of experiment: Dog plasma half-life after oral dose. Particulars: Beagle dogs, oral dose 0.1 mg/kg, plasma over 72 hours, read-out: t½ (hrs), Dog Plasma Compound Half-life (converted). The data set is classed as in vivo. The procedure: Lastly, plasma half-life was assessed for a number of compounds in dogs. Beagle dogs were given an oral dose (0.1 mg/kg) of the respective compound accounting for a dose amount of about 1 mg/dog. Pimopendan was administered at a 0.3 mg/kg dose.
One may read the half-life as the time in which the quantity being followed falls by half. As to `CC1CC(=O)NN=C1c1cc(Cl)c2c(c1)C(C)(C)C(=O)N2` (racemic) [Example #24, 7-chloro-3,3-dimethyl-5-(4-methyl-6-oxo-1,4,5,6-tetrahydropyridazin-3-yl)indolin-2-one], the half-life is 50 h.

On to `CC1CC(=O)NN=C1c1cc2c(c(-c3cccc(F)c3)c1)NC(=O)CC2` (stereo not shown) [Example #12, 8-(3-fluorophenyl)-6-(4-methyl-6-oxo-1,4,5,6-tetrahydropyridazin-3-yl)-3,4-dihydroquinolin-2 (1H)-one], for which the half-life was 10.4 h.

On to `COc1ccc(C2(c3nc4ccc(C5=NNC(=O)CC5C)cc4[nH]3)CC2)cc1` (stereo not shown) [Example #19, 6-(2-(1-(4-methoxyphenyl)cyclopropyl)-1H-benzo[d]imidazol-6-yl)-5-methyl-4,5-dihydropyridazin-3 (2H)-one], for which the half-life was 16 h.

As to `CC1CC(=O)NN=C1c1cc(Br)c2c(c1)C(C)(C)C(=O)N2` (stereo not shown) [Example #23, 7-bromo-3,3-dimethyl-5-(4-methyl-6-oxo-1,4,5,6-tetrahydropyridazin-3-yl)indolin-2-one], the half-life is 94 h.

For `CC1(C)C(=O)Nc2c(Cl)cc(-c3ccc(=O)[nH]n3)cc21` [Example #25, 7-chloro-3,3-dimethyl-5-(6-oxo-1,6-dihydropyridazin-3-yl)indolin-2-one], the half-life was 50 h.

With `Cc1cc(C2=NNC(=O)SC2C)cc2sc(=O)[nH]c12` (stereo not shown) [Example #55, 4-methyl-6-(6-methyl-2-oxo-3,6-dihydro-2H-1,3,4-thiadiazin-5-yl)benzo[d]thiazol-2 (3H)-one], the half-life is 3.2 h.

As for `CC1(C)C(=O)Nc2c(Cl)cc(C3=NNC(=O)SC3)cc21` [Example #61, 5-(7-chloro-3,3-dimethyl-2-oxoindolin-5-yl)-3,6-dihydro-2H-1,3,4-thiadiazin-2-one], the half-life was 8.5 h.

Consider `CC1SC(=O)NN=C1c1cc(Cl)c2c(c1)CC(=O)N2` (stereo not shown) [Example #62, 5-(7-chloro-2-oxoindolin-5-yl)-6-methyl-3,6-dihydro-2H-1,3,4-thiadiazin-2-one], for which the half-life is 5 h.
